pIC50: −log10 of the molar value.
Tests used:
[1] = system: HOP-62; test: Growth inhibition of human HOP62 cells assessed as cell growth at 10 uM after 48 hrs by sulforhodamine B assay; type: functional; conditions: HOP-62, 48 h, read-out: Activity
[2] = system: CAKI-1; test: Growth inhibition of human CAKI-1 cells assessed as cell growth at 10 uM after 48 hrs by sulforhodamine B assay; type: functional; conditions: CAKI-1, 48 h, read-out: Activity
[3] = system: NCI-H23; test: Growth inhibition of human NCI-H23 cells assessed as cell growth at 10 uM after 48 hrs by sulforhodamine B assay; type: functional; conditions: NCI-H23, 48 h, read-out: Activity
[4] = system: NCI-H226; test: Growth inhibition of human NCI-H226 cells after 48 hrs by sulforhodamine B assay; type: functional; conditions: NCI-H226, 48 h; for CC50: read-out: LC50 (the source's name)
[5] = system: MCF7; test: Growth inhibition of human MCF7 cells after 48 hrs by sulforhodamine B assay; type: functional; conditions: MCF7, 48 h
[6] = system: PC-3; test: Growth inhibition of human PC3 cells assessed as cell growth at 10 uM after 48 hrs by sulforhodamine B assay; type: functional; conditions: PC-3, 48 h, read-out: Activity
[7] = system: HOP-62; test: Growth inhibition of human HOP62 cells after 48 hrs by sulforhodamine B assay; type: functional; conditions: HOP-62, 48 h; for CC50: read-out: LC50 (the source's name)
[8] = system: UO-31; test: Growth inhibition of human UO31 cells after 48 hrs by sulforhodamine B assay; type: functional; conditions: UO-31, 48 h; for CC50: read-out: LC50 (the source's name)
[9] = system: U-251; test: Growth inhibition of human U251 cells assessed as cell growth at 10 uM after 48 hrs by sulforhodamine B assay; type: functional; conditions: U-251, 48 h, read-out: Activity
[10] = Growth inhibition of human HCC2998 cells after 48 hrs by sulforhodamine B assay; type: functional; conditions: HCC 2998, 48 h; for CC50: read-out: LC50 (the source's name)
[11] = system: NCI-H322M; test: Growth inhibition of human NCI-H322M cells assessed as cell growth at 10 uM after 48 hrs by sulforhodamine B assay; type: functional; conditions: read-out: Activity
[12] = system: MDA-MB-231; test: Growth inhibition of human MDA-MB-231 cells after 48 hrs by sulforhodamine B assay; type: functional; conditions: MDA-MB-231, 48 h
[13] = system: COLO 205; test: Growth inhibition of human COLO205 cells assessed as cell growth at 10 uM after 48 hrs by sulforhodamine B assay; type: functional; conditions: COLO 205, 48 h, read-out: Activity
[14] = system: IGROV-1; test: Growth inhibition of human IGROV1 cells after 48 hrs by sulforhodamine B assay; type: functional; conditions: IGROV-1, 48 h
[15] = system: SK-OV-3; test: Growth inhibition of human SKOV3 cells assessed as cell growth at 10 uM after 48 hrs by sulforhodamine B assay; type: functional; conditions: SK-OV-3, 48 h, read-out: Activity
[16] = system: OVCAR-5; test: Growth inhibition of human OVCAR5 cells after 48 hrs by sulforhodamine B assay; type: functional; conditions: OVCAR-5, 48 h
[17] = system: SK-MEL-28; test: Growth inhibition of human SK-MEL-28 cells after 48 hrs by sulforhodamine B assay; type: functional; conditions: SK-MEL-28, 48 h
[18] = Growth inhibition of human NCI-ADR-RES cells assessed as cell growth at 10 uM after 48 hrs by sulforhodamine B assay; type: functional; conditions: read-out: Activity
[19] = system: K562; test: Growth inhibition of human K562 cells after 48 hrs by sulforhodamine B assay; type: functional; conditions: K562, 48 h; for CC50: read-out: LC50 (the source's name)
[20] = system: HL-60(TB); test: Growth inhibition of human HL-60(TB) cells assessed as cell growth at 10 uM after 48 hrs by sulforhodamine B assay; type: functional; conditions: HL-60, 48 h, read-out: Activity
[21] = system: LOX IMVI; test: Growth inhibition of human LOXIMVI cells after 48 hrs by sulforhodamine B assay; type: functional
[22] = system: MOLT-4; test: Growth inhibition of human MOLT4 cells after 48 hrs by sulforhodamine B assay; type: functional; conditions: MOLT-4, 48 h; for CC50: read-out: LC50 (the source's name)
[23] = system: HOP-92; test: Growth inhibition of human HOP92 cells assessed as cell growth at 10 uM after 48 hrs by sulforhodamine B assay; type: functional; conditions: HOP-92, 48 h, read-out: Activity
[24] = system: SF-268; test: Growth inhibition of human SF268 cells assessed as cell growth at 10 uM after 48 hrs by sulforhodamine B assay; type: functional; conditions: SF-268, 48 h, read-out: Activity
[25] = system: NCI-H522; test: Growth inhibition of human NCI-H522 cells assessed as cell growth at 10 uM after 48 hrs by sulforhodamine B assay; type: functional; conditions: NCI-H522, 48 h, read-out: Activity
[26] = system: BT-549; test: Growth inhibition of human BT549 cells assessed as cell growth at 10 uM after 48 hrs by sulforhodamine B assay; type: functional; conditions: BT-549, 48 h, read-out: Activity
[27] = system: UACC-62; test: Growth inhibition of human UACC62 cells after 48 hrs by sulforhodamine B assay; type: functional; conditions: UACC-62, 48 h
[28] = system: Malme-3M; test: Growth inhibition of human MALME-3M cells after 48 hrs by sulforhodamine B assay; type: functional
[29] = system: SK-MEL-2; test: Growth inhibition of human SK-MEL-2 cells after 48 hrs by sulforhodamine B assay; type: functional; conditions: SK-MEL-2, 48 h
[30] = system: NCI-H23; test: Growth inhibition of human NCI-H23 cells after 48 hrs by sulforhodamine B assay; type: functional; conditions: NCI-H23, 48 h
[31] = system: SF-295; test: Growth inhibition of human SF295 cells after 48 hrs by sulforhodamine B assay; type: functional, cell-based; conditions: SF-295, 48 h; for CC50: read-out: LC50 (the source's name)
[32] = system: MDA-MB-435; test: Growth inhibition of human MDA-MB-435 cells assessed as cell growth at 10 uM after 48 hrs by sulforhodamine B assay; type: functional; conditions: MDA-MB-435, 48 h, read-out: Activity
[33] = system: LOX IMVI; test: Growth inhibition of human LOXIMVI cells assessed as cell growth at 10 uM after 48 hrs by sulforhodamine B assay; type: functional; conditions: read-out: Activity
[34] = system: SF-268; test: Growth inhibition of human SF268 cells after 48 hrs by sulforhodamine B assay; type: functional; conditions: SF-268, 48 h; for CC50: read-out: LC50 (the source's name)

COc1cc(-c2nn(-c3cccc(NC(=O)Nc4cccc(C(F)(F)F)c4)c3)cc2-c2ccncc2)ccc1Cl
growth at 10 µM [1]: -29.9%
growth at 10 µM [2]: 11.5%
growth at 10 µM [3]: -12.4%
GI50 [4]: 1380 nM
TGI [4]: > 50000 nM
CC50 [4]: > 50000 nM
GI50 [5]: 751 nM
LC50 [5]: > 50000 nM
TGI [5]: 7720 nM
growth at 10 µM [6]: -23%
GI50 [7]: 1340 nM
TGI [7]: 4070 nM
CC50 [7]: > 50000 nM
GI50 [8]: 702 nM
TGI [8]: 3210 nM
CC50 [8]: > 50000 nM
growth at 10 µM [9]: -82.2%
GI50 [10]: 1190 nM
TGI [10]: 3200 nM
CC50 [10]: 15300 nM
growth at 10 µM [11]: 21.7%
GI50 [12]: 811 nM
LC50 [12]: 25500 nM
TGI [12]: 2370 nM
growth at 10 µM [13]: -88.9%
GI50 [14]: 1060 nM
LC50 (concentration killing 50% of cells) [14]: 50000 nM
TGI [14]: 3110 nM
growth at 10 µM [15]: 4.13%
GI50 [16]: 1270 nM
LC50 (concentration killing 50% of cells) [16]: > 50000 nM
TGI [16]: 6450 nM
GI50 [17]: 1120 nM
LC50 [17]: 21100 nM
TGI [17]: 3350 nM
growth at 10 µM [18]: -11.9%
GI50 [19]: 584 nM
TGI [19]: > 50000 nM
CC50 [19]: > 50000 nM
growth at 10 µM [20]: -18.7%
GI50 [21]: 789 nM
LC50 [21]: 3460 nM
TGI [21]: 1650 nM
GI50 [22]: 936 nM
TGI [22]: 3480 nM
CC50 [22]: > 50000 nM
growth at 10 µM [23]: -33.6%
growth at 10 µM [24]: 2.35%
growth at 10 µM [25]: -30.8%
growth at 10 µM [26]: -15.4%
GI50 [27]: 725 nM
LC50 (50% lethal concentration) [27]: 3480 nM
TGI [27]: 1590 nM
GI50 [28]: 1050 nM
LC50 (concentration killing 50% of starting cells) [28]: 33900 nM
TGI [28]: 2410 nM
GI50 [29]: 970 nM
LC50 (50% lethal concentration) [29]: 3960 nM
TGI [29]: 1960 nM
GI50 [30]: 1180 nM
LC50 [30]: > 50000 nM
TGI [30]: 3410 nM
GI50 [31]: 306 nM
pIC50 [31]: 6.51
TGI [31]: 1130 nM
CC50 [31]: 3200 nM
growth at 10 µM [32]: -50%
growth at 10 µM [33]: -64.2%
GI50 [34]: 1360 nM
TGI [34]: 5430 nM
CC50 [34]: 50000 nM

COc1cc(-c2nn(-c3cccc(NC(=O)c4ccc(N5CCOCC5)c(C(F)(F)F)c4)c3)cc2-c2ccncc2)ccc1Cl
growth at 10 µM [1]: 29.4%
growth at 10 µM [2]: 39.9%
growth at 10 µM [3]: 15.6%
GI50 [4]: 427 nM
TGI [4]: > 100000 nM
CC50 [4]: > 100000 nM
GI50 [5]: 285 nM
LC50 [5]: > 100000 nM
TGI [5]: > 1000 nM
growth at 10 µM [6]: 8.17%
GI50 [7]: 583 nM
TGI [7]: > 100000 nM
CC50 [7]: > 100000 nM
GI50 [8]: 289 nM
TGI [8]: 7530 nM
CC50 [8]: > 100000 nM
growth at 10 µM [9]: 2.49%
GI50 [10]: 1070 nM
TGI [10]: 5020 nM
CC50 [10]: > 100000 nM
growth at 10 µM [11]: 54.2%
GI50 [12]: 299 nM
LC50 [12]: > 100000 nM
TGI [12]: 2390 nM
growth at 10 µM [13]: -43.4%
GI50 [14]: 437 nM
LC50 (concentration killing 50% of cells) [14]: > 100000 nM
TGI [14]: 6790 nM
growth at 10 µM [15]: 1.88%
GI50 [16]: 1450 nM
LC50 (concentration killing 50% of cells) [16]: > 100000 nM
TGI [16]: > 100000 nM
GI50 [17]: 1390 nM
LC50 [17]: > 100000 nM
TGI [17]: > 100000 nM
growth at 10 µM [18]: -7.13%
GI50 [19]: 49.9 nM
TGI [19]: > 100000 nM
CC50 [19]: > 100000 nM
growth at 10 µM [20]: -8.08%
GI50 [21]: 371 nM
LC50 [21]: > 100000 nM
TGI [21]: 6200 nM
GI50 [22]: 669 nM
TGI [22]: > 100000 nM
CC50 [22]: > 100000 nM
growth at 10 µM [23]: 11.5%
growth at 10 µM [24]: 22.5%
growth at 10 µM [25]: 0.2%
growth at 10 µM [26]: 14.3%
GI50 [27]: 266 nM
LC50 (50% lethal concentration) [27]: > 100000 nM
TGI [27]: 8200 nM
GI50 [28]: 129 nM
LC50 (concentration killing 50% of starting cells) [28]: > 100000 nM
TGI [28]: 5100 nM
GI50 [29]: 291 nM
LC50 (50% lethal concentration) [29]: > 100000 nM
TGI [29]: 8240 nM
GI50 [30]: 870 nM
LC50 [30]: > 100000 nM
TGI [30]: 20700 nM
GI50 [31]: 150 nM
pIC50 [31]: 6.82
TGI [31]: 1150 nM
CC50 [31]: 6310 nM
growth at 10 µM [32]: -35.1%
growth at 10 µM [33]: 13.7%
GI50 [34]: 668 nM
TGI [34]: > 100000 nM
CC50 [34]: > 100000 nM

From ChEMBL document CHEMBL2440076, “New triarylpyrazoles as broad-spectrum anticancer agents: design, synthesis, and biological evaluation” (Eur J Med Chem, 2013)
